The values below come from PubChem BioAssay (NCI).

Experiment in all cases: growth of human tumour cells (NCI), 48 h
Test [1] relates to SK-MEL-2 melanoma.
Test [2] concerns SF-295 CNS.
Test [3] concerns OVCAR-4 ovarian.
For test [4], the system named is HOP-92 NSCLC.
For test [5], the system named is A498 renal.
Test [6] relates to SNB-75 CNS.
For test [7], the system named is UACC-257 melanoma.
Test [8] has as its system DU-145 prostate.
Test [9] deals with NCI-H23 lung.
The subject of test [10] is CAKI-1 renal.
Test [11] concerns HT29 colon.

The structures appear in SMILES notation.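 Cultured in 96-well plates, cells were exposed to test compound for 48 hours across five concentrations. TGI denotes the concentration required for complete inhibition of growth.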

As for `CC[C@]1(Cc2ccc(OC)c(OC)c2)C=[N+]([O-])O[C@H](OCc2ccccc2)[C@@H]1OC(C)=O`, the TGI in test [1] was 79.3 µM; in test [2], over 100 µM; in [3], 95.6 µM; in test [4], 77.3 µM; in test [5], over 100 µM; in [6], over 100 µM. Moreover, the TGI was over 100 µM in test [7]; 93.5 µM in test [8]; over 100 µM in test [9]; 80.9 µM in test [10]; 79.9 µM in [11].

On to `O=C(O)CCC(NC(=O)c1ccc(CNc2nc3cc(C(F)(F)F)ccc3nc2C(=O)O)cc1)C(=O)O` (centres undefined), for which the TGI in test [1], in test [2], in [3], in [4], in test [5] and in test [6] was over 100 µM throughout. For the same compound, the TGI in [7], in [8], in [9], in test [10] and in [11] was over 100 µM each time.

As for `Nn1c(CCCCCCCCc2n[nH]c(=S)n2N)n[nH]c1=S`, the TGI in [1], in test [2], in test [3], in test [4], in [5] and in test [6] was over 100 µM throughout. Moreover, the TGI in [7], in test [8], in [9], in [10] and in test [11] was over 100 µM in each case.

As for `COc1cccc(CCn2c(N)c(C#N)c3ccc([N+](=O)[O-])cc3c2=O)c1`, the TGI was over 46.4 µM in test [1]; over 31.6 µM in [2]; over 100 µM in test [3]; over 31.6 µM in [4]; over 100 µM in [5]; over 46.4 µM in [6]. The TGI in [7] was over 31.6 µM; in test [8], over 46.4 µM; in [9] it was over 46.4 µM; in test [10], over 46.4 µM; in test [11], over 31.6 µM.
